Results from patent publication US11466006B2, “Dual selective PI3 delta and gamma kinase inhibitors” (Rhizen Pharmaceuticals SA, priority 2013, dated 2022).

What was measured:
PI3Kδ = PI3Kδ (Homo sapiens, UniProt O00329); assay: Fluorescent (HTRF) determination of PI3 kinase enzyme activity, delta isoform; type: biochemical; design: purchased Millipore (assay kit); conditions: Table 1, unit printed in cell; read-out: IC50 Pi3Kδ
Source text: (§1) Phosphoinositide 3 kinases (PI3K) belong to a class of lipid kinases that play a critical role in the regulation of several key cellular processes. The PI3K are capable of phosphorylating the 3-hydroxy position of phosphoinositols thereby generating second messengers involved in downstream signalling events. The homogenous time resolved fluorescence (HTRF) assay allows detection of 3,4,5-triphosphate (PIP3) formed as a result of phosphorylation of phosphotidylinositol 4,5-biphosphate (PIP2) by PI3K isoforms such as α, β, γ or δ.
(§2) PI3K isoform activity for α, β, γ or δ was determined using a PI3K human HTRF™ Assay Kit (Millipore, Billerica, Mass.) with modifications. All incubations were carried out at room temperature. Briefly, 0.5 μl of 40× inhibitor (in 100% DMSO) or 100% DMSO were added to each well of a 384-well white plate (Greiner Bio-One, Monroe, N.C.) containing 14.5 μl 1× reaction buffer /PIP2 (10 mM MgCl2, 5 mM DTT, 1.38 μM PIP2) mix with or without enzyme, followed by 5 μl/well of 400 μM ATP and incubated for an additional 30 minutes. Reaction was terminated by adding 5 μl/well stop solution (Millipore, Billerica, Mass.). […] HRTF ratio was measured on a microplate reader (BMG Labtech., Germany) at an excitation wavelength of 337 nm and emission wavelengths of 665 and 615 nm with an integration time of 400 msec counting delay of 50 msec.

Pi3K γ = Pi3K γ (Homo sapiens, UniProt P48736); assay: Fluorescent (HTRF) determination of PI3 kinase enzyme activity, gamma isoform; type: biochemical; design: purchased Millipore (assay kit); conditions: Table 1, unit printed in cell; read-out: IC50 Pi3K γ
Source text: as §1, §2

[1] = reported at 55th ASH Annual Meeting 2013; cited from earlier work

Chain of PI3Kδ (O00329 whole entry, canonical isoform): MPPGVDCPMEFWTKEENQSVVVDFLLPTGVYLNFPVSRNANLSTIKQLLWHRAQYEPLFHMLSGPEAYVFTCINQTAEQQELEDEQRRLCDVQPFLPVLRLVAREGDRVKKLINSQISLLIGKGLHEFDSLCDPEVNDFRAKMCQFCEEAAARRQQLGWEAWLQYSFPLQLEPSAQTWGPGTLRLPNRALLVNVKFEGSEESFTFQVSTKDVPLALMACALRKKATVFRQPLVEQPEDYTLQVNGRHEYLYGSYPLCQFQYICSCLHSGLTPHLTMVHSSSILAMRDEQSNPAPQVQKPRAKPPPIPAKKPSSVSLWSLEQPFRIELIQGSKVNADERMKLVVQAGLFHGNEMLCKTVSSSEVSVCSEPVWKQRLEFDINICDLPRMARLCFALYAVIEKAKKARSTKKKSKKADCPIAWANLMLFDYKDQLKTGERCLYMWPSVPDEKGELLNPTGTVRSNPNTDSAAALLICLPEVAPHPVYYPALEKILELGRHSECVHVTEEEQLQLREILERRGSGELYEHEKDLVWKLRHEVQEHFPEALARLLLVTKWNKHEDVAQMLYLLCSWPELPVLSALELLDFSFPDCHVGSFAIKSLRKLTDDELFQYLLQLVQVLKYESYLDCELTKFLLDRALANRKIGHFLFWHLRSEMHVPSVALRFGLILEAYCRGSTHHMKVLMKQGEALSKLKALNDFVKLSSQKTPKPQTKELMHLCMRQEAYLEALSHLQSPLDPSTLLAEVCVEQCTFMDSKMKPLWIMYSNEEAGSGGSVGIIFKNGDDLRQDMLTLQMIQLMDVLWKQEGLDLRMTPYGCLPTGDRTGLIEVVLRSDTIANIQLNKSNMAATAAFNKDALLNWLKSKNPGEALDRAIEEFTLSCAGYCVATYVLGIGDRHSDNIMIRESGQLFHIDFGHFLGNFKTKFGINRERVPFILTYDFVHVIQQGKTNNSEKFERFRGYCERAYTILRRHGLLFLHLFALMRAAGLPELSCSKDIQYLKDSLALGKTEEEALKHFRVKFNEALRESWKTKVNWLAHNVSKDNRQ
Chain of PI3Kδ (P27986 whole entry partner, canonical isoform): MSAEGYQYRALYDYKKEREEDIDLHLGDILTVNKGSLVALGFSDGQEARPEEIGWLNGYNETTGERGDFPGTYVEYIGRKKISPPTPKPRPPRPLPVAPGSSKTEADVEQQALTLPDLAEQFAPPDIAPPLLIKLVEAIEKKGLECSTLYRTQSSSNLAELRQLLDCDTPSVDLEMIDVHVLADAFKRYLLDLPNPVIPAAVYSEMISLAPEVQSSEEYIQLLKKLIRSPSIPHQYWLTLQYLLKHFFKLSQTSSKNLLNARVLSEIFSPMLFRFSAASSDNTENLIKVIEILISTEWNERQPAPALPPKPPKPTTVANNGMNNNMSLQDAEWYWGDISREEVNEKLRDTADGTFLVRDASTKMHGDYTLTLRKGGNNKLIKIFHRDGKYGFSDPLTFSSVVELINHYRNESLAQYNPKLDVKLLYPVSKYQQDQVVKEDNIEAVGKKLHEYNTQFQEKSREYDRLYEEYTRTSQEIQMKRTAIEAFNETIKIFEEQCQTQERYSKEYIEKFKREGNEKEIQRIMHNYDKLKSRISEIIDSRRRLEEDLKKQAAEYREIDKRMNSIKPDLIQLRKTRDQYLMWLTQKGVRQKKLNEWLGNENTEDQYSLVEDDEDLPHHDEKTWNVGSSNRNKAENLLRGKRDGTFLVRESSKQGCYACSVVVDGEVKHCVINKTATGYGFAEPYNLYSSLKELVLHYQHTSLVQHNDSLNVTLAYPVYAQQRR
Chain of Pi3K γ (P48736 whole entry, canonical isoform): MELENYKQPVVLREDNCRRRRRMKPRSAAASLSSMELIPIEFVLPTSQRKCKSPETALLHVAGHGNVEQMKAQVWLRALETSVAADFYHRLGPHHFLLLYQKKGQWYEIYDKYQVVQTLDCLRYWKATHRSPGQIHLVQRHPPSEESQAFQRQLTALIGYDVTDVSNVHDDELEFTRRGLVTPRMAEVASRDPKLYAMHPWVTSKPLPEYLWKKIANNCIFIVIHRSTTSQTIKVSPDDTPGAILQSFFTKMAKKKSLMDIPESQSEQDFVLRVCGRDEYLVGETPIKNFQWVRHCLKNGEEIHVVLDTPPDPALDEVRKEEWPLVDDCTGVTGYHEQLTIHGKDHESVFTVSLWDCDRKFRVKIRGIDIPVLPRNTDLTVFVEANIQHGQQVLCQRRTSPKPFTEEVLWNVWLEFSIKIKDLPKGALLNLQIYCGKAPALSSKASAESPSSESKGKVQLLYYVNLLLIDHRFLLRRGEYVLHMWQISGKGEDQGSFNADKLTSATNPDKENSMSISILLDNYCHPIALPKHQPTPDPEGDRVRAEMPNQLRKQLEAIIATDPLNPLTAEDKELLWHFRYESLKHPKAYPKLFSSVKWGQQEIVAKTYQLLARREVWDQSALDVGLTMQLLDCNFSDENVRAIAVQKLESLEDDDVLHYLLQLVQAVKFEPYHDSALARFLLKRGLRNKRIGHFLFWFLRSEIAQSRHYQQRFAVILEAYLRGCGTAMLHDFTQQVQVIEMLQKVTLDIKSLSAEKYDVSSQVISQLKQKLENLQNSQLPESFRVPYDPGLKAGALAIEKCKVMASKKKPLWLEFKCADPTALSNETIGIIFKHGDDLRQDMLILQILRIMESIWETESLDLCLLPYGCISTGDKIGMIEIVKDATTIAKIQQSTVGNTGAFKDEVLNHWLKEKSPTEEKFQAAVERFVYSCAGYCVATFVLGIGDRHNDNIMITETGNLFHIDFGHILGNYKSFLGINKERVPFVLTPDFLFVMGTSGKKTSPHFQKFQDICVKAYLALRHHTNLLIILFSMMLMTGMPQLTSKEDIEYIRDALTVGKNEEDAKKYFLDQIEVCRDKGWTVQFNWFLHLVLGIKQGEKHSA

Row | IC50 (PI3Kδ) [µM] | IC50 (Pi3K γ) [µM] | SMILES | maximum tolerated dose (MTD) [1] [mg BID]
1 | > 10 | > 10 | CC[C@@H](Nc1ncnc2[nH]cnc12)c1oc2ccccc2c(=O)c1-c1cccc(F)c1 [Compound A2, (R)-2-(1-(9H-purin-6-ylamino)propyl)-3-(3-fluorophenyl)-4H-chromen-4-one] | 
2 |  |  | C[C@H](Nc1ncnc2[nH]cnc12)c1cc2cccc(Cl)c2c(=O)n1-c1ccccc1 [IPI-45] | 75
